Laboratory results published in ChEMBL document CHEMBL1201862, “PubChem BioAssay data set” (2004).
Each block holds one molecule with its values, some of them ahead of it. Active and inactive are the calls of the source.

Legend:
[1] = biological target: Protein Wnt-3a (Mus musculus, UniProt P27467); assay: antagonism of Wnt3a pathway luciferase reporter – Wnt-LIGHT cells, luminescence, selectivity assay for Gli-SUFU antagonist project, dose response (AID 651570); format: functional; conditions: read-out: IC50_Mean;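 note: Wnt-LIGHT reporter cells stimulated with conditioned medium from Wnt3a-producing cells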
[2] = biological target: T1, ATP-dependent translocase ABCB1 (Homo sapiens, UniProt P08183); assay: inhibition of BCRP-mediated JC-1 efflux – Ig-MXP3 cells, flow cytometry, set 2, dose response (AID 504566); format: functional; conditions: read-out: EC50_MICROM_;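 note: flow cytometry median green fluorescence of retained JC-1 dye; potency of efflux pump inhibition measured as rising substrate retention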
[3] = biological target: T1, ATP-dependent translocase ABCB1; assay: P-gp JC-1 efflux blockade concentration-response – Jurkat-DNR cells, flow cytometry, set 2, dose response (AID 504569); format: functional; conditions: read-out: EC50_MICROM_;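 note: potency of pump inhibitors that raise cellular JC-1 green fluorescence up to the nicardipine level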
[4] = biological target: Photoreceptor-specific nuclear receptor (Homo sapiens, UniProt Q9Y5X4); format: functional, cell-based;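 note: CHO-S cells with Gal4-NCOR and VP16-NR2E3 two-hybrid luciferase reporter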
[5] = biological target: T2, Heat shock factor protein 1 (Mus musculus, UniProt P38532); assay: decrease of HSF1-responsive luciferase luminescence – cell-based, NIH3T3, dose retest, confirmation (AID 2382); format: functional;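 note: NIH3T3 fibroblasts with HSF1-driven luciferase reporter stressed by proteasome inhibitor MG132; luminescence from HSF1-driven luciferase expression after 8 hours of MG132 stress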
T2 sequence (P38532 whole entry): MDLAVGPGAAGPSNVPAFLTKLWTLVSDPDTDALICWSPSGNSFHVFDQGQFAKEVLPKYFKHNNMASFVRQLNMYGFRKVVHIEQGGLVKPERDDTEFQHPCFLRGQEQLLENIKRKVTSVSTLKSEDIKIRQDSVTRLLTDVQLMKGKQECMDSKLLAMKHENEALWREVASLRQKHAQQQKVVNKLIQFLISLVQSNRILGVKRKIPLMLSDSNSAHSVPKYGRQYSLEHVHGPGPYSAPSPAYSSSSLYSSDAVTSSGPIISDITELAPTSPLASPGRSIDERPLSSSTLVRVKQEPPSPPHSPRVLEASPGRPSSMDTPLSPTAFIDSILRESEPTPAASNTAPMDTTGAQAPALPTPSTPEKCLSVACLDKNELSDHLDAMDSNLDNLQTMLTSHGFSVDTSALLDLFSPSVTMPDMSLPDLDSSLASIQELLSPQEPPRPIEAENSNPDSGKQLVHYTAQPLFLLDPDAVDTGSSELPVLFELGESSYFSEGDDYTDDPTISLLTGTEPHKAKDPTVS

[6] = biological target: T3, Corticotropin-releasing factor receptor 2/Corticotropin-releasing factor-binding protein (Homo sapiens, UniProt P24387+Q13324); assay: activators of CRF receptor 2 with binding protein – uHTS hits, confirmation (AID 602473); format: functional; conditions: read-out: EC50_Mean
T3 sequence (Q13324 whole entry): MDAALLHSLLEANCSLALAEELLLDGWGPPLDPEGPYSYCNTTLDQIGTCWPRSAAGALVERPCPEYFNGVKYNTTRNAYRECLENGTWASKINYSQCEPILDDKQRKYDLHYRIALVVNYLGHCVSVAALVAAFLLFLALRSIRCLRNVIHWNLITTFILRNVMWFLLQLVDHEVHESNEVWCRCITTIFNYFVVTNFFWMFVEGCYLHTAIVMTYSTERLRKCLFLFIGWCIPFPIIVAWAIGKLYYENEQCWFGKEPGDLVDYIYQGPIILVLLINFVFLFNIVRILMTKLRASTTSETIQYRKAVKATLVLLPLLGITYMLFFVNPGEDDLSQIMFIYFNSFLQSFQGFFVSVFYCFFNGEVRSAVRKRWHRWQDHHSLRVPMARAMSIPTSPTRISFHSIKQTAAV
T3 sequence (P24387 whole entry): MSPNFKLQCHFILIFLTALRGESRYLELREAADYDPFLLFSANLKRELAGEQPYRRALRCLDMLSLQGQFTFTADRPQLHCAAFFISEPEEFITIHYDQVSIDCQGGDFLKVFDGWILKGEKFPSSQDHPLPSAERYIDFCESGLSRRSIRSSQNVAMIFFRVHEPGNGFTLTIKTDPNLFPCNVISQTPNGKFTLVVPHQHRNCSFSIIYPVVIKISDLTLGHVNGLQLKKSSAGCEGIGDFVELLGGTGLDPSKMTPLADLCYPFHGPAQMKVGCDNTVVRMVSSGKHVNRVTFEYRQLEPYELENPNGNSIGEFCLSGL

[7] = blockers of CRF-binding protein–CRF-R2 complex – cell-based, uHTS hits, 384-well, dose response (AID 651639); format: functional, Homo sapiens; conditions: read-out: IC50_Mean
[8] = biological target: T3, Corticotropin-releasing factor receptor 2/Corticotropin-releasing factor-binding protein; assay: Dose Response confirmation of uHTS hits for small molecule antagonists of the CRF-binding protein and CRF-R2 receptor complex.; format: functional; conditions: read-out: IC50_Mean
[9] = biological target: Hepatocyte nuclear factor 4-alpha (Homo sapiens, UniProt P41235); format: functional, cell-based;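 note: biochemical luminescence-based dose-response counterscreen measuring inhibition of HNF4 dimerization, run alongside a screen for blockers of ABHD5–perilipin-5 interaction; split luciferase complementation of HNF4 fusion proteins in cell lysate measuring dimerization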
[10] = inhibition of ARNT PAS-B/TACC3 complex formation – biochemical, AlphaScreen, cherry-picked samples, confirmation (AID 651703); format: functional, Homo sapiens;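 note: His-tagged ARNT PAS-B domain paired with GST-TACC3 E629A dimer coactivator fragment; potency of inhibitors that break up the complex and lower AlphaScreen signal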
[11] = biological target: T4, 1-phosphatidylinositol 4,5-bisphosphate phosphodiesterase beta-3 (Homo sapiens, UniProt Q01970); assay: Fluorescence-based biochemical high throughput dose response assay to identify inhibitors of phospholipase C isozymes (PLC-B3).
T4 sequence (Q01970 whole entry): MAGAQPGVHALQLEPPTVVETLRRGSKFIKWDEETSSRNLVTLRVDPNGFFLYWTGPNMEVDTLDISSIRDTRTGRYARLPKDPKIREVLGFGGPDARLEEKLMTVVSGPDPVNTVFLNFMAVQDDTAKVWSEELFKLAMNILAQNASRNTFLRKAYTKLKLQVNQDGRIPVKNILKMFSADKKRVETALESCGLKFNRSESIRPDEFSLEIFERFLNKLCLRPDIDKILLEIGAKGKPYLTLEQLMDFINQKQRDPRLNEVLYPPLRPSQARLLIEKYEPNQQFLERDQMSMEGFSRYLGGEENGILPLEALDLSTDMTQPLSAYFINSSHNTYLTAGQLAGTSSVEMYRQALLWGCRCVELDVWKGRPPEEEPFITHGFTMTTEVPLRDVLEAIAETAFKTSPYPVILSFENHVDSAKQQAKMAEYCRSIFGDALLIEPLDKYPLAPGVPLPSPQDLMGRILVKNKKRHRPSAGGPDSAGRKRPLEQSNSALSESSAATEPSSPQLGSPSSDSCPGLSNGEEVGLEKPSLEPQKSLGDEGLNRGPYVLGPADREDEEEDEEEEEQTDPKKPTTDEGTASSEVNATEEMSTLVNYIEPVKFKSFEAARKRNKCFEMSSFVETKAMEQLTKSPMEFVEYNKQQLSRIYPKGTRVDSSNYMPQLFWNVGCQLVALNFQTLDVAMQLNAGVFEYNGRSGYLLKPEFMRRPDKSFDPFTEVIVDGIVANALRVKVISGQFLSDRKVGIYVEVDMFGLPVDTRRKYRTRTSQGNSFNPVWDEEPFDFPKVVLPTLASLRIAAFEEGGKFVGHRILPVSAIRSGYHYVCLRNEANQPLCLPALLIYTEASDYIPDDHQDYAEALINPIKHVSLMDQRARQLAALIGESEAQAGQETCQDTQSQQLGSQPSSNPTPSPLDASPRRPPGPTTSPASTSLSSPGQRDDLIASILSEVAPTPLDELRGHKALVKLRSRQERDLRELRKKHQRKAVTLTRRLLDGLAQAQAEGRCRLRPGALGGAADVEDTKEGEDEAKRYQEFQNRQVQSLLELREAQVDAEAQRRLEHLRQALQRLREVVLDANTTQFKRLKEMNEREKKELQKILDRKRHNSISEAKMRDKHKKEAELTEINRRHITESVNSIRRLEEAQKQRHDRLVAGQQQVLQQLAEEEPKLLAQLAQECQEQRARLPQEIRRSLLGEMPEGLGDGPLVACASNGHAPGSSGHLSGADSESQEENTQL

[12] = biological target: T5, 1-phosphatidylinositol 4,5-bisphosphate phosphodiesterase gamma-1 (Homo sapiens, UniProt P19174); assay: Counterscreen for inhibitors of phospholipase C isozymes (PLC-B3): Fluorescence-based biochemical high throughput dose response assay to identify inhibitors of phospholipase C isozymes (PLC-gamma1).
T5 sequence (P19174 whole entry): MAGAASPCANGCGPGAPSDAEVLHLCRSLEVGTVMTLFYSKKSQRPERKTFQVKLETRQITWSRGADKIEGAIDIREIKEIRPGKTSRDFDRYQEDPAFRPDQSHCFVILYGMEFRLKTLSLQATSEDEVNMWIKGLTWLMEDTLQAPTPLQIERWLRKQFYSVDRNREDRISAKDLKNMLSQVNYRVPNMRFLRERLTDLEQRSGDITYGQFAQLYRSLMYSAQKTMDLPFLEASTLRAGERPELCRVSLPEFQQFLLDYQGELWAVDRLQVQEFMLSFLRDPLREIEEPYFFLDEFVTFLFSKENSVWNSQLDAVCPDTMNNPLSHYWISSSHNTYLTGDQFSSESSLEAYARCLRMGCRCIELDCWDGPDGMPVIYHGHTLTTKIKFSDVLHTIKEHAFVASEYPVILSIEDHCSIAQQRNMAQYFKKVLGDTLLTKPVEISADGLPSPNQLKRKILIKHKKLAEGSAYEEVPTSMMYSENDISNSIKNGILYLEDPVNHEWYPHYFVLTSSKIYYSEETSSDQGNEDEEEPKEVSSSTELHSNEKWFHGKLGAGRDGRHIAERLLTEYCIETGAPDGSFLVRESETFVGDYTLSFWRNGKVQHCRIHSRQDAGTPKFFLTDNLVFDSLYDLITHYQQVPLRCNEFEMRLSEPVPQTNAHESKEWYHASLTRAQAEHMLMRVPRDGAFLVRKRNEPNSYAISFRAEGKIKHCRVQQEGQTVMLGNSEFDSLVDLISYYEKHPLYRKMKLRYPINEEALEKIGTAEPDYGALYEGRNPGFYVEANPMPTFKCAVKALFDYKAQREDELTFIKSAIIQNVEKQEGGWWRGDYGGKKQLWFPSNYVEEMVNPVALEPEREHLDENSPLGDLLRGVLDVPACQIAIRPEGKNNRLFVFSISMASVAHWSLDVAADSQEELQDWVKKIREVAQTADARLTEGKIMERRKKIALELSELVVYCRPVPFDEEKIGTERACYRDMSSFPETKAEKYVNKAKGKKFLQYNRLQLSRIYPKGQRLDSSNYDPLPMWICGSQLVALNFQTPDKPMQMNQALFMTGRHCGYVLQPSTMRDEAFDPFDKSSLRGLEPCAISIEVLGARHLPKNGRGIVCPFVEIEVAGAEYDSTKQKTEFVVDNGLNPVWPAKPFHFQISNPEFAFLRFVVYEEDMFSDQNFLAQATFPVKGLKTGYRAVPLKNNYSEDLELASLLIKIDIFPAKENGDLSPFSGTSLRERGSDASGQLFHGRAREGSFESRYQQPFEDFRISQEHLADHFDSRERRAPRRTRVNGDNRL

T1 sequence (P08183 whole entry): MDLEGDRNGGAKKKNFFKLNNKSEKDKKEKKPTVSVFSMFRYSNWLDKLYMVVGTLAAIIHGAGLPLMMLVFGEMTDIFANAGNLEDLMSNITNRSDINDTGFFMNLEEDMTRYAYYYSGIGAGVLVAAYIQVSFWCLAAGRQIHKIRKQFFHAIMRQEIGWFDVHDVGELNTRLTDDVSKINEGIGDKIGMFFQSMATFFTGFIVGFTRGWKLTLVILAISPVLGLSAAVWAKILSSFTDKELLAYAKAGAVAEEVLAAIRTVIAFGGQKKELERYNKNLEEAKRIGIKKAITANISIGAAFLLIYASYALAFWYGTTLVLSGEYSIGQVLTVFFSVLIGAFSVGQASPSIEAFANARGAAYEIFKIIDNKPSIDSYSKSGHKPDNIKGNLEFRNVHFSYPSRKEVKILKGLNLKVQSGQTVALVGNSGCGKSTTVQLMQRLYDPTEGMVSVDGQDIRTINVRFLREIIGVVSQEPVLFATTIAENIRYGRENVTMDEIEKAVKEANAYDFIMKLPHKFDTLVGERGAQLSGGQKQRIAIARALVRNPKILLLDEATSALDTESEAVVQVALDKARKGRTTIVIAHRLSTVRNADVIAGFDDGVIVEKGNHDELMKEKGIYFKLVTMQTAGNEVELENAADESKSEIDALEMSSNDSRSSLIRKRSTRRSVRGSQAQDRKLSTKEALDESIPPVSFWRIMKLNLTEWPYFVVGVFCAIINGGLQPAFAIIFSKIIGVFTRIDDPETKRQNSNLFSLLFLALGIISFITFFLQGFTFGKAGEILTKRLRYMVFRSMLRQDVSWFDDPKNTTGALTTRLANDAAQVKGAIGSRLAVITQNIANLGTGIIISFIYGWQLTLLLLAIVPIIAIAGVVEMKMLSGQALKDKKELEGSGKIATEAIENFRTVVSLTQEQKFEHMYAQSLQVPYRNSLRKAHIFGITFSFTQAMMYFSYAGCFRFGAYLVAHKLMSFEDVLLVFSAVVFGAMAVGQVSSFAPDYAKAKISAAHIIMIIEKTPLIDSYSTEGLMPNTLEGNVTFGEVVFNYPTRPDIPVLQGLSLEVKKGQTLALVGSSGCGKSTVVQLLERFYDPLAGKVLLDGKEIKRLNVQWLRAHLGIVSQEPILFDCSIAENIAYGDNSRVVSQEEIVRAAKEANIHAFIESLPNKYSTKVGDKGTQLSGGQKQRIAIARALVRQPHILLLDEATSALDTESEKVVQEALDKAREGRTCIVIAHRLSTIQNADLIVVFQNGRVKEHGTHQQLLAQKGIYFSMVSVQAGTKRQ
Sequence of Hepatocyte nuclear factor 4-alpha (P41235 whole entry, the tested form may be a part): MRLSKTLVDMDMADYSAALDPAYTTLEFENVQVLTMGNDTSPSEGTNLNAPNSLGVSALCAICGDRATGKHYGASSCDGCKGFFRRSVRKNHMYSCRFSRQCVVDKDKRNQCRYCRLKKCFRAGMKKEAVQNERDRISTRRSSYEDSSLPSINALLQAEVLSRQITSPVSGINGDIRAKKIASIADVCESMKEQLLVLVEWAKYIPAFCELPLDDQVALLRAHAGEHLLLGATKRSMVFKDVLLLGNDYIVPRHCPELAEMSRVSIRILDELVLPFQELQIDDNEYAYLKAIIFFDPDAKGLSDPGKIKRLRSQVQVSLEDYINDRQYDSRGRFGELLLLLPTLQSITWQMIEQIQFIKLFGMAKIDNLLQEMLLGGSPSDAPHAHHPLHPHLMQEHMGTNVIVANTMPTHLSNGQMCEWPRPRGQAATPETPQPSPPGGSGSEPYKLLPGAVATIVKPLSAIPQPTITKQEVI
Sequence of Protein Wnt-3a (P27467 whole entry): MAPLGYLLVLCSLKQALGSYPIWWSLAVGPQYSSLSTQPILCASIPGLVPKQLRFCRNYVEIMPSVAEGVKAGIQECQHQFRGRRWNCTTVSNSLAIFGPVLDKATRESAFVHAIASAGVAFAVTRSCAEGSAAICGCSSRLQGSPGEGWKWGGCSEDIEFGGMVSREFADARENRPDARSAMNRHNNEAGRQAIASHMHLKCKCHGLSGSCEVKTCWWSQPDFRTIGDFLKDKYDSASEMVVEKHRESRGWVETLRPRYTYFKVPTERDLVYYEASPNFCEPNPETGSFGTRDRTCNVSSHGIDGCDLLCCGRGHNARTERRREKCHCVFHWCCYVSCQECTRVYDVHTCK
Sequence of Photoreceptor-specific nuclear receptor (Q9Y5X4 whole entry, the tested form may be a part): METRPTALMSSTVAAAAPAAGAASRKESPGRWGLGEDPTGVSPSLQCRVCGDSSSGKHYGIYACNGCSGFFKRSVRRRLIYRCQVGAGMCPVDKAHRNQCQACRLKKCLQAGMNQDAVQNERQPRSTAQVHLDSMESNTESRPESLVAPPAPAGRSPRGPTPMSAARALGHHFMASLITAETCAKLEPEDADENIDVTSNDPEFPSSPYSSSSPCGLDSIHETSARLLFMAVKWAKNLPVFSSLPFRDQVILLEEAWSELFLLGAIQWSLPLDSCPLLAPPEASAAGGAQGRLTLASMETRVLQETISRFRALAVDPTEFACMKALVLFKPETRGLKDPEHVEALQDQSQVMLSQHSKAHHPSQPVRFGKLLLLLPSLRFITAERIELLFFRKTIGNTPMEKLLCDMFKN

SMILES: CCC(C)CCN1C(N(C)C)=NC[C@@H]1CC(C)C (some centres not stated)
IC50 [1]: 6.72 µM (active)

SMILES: N#Cc1ccc(C(C(=O)NC2CCCCC2)n2c(=O)c(-c3ccco3)nc3ccccc32)cc1 (configuration not stated)
IC50 [9]: 2.39 µM (active)

SMILES: CCOc1ccccc1Nc1nc(N)nc(CN(C)C2CCCCC2)n1
AC50 [10]: 80.6 µM (active)
IC50 [11]: > 123 µM (inactive)
IC50 [12]: > 123 µM (inactive)

Continued, values first:

EC50 [2]: 17.7 µM (inactive)
EC50 [3]: 28.1 µM (inactive)
SMILES: Cc1cc(N2CCN(C(=O)c3ccco3)CC2)n2nc(C)c(-c3ccc(Cl)cc3)c2n1

IC50 [4]: 3.65 µM (active)
SMILES: CC(C(=O)N1CCN(c2ccc(Cl)cc2)CC1)c1ncc(C(F)(F)F)cc1Cl (configuration not stated)

EC50 [5]: 70.4 µM (active)
EC50 [6]: > 53 µM (inactive)
IC50 [7]: 0.675 µM (active)
IC50 [8]: < 0.368 µM (active)
SMILES: COc1cccc2cc(-c3nnc(-c4ccccc4)o3)c(=O)oc12
